Holding throughout (format): biochemical
Common to all, as to conditions: ADP-Glo SIK kinase assay
(In general: In ADP-Glo the light output rises with the ADP produced.)

One test has as its target T1, SIK1 (Homo sapiens, UniProt P57059).
T1 construct: purchased Carna Biosciences 02-131
Briefly: ADP-Glo kinase assay, SIK1. An outline of the steps:
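ADP-Glo, RT throughout. Enz/substrate + ATP, 120 min; ADP-Glo reagent 40 min (ATP depletion); detection reagent 30 min; luminescence read. Neg ctrl 1% DMSO, pos ctrl 10 μM staurosporine, final concs.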

For another test, the target named is T2, SIK2 (Homo sapiens, UniProt Q9H0K1).
T2 construct: purchased ThermoFisher Scientific PV4792
Briefly: ADP-Glo kinase assay, SIK2. An outline of the steps: (§1)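 Wells with 1% DMSO or 10 μM staurosporine (final) define the control window. The kinase reaction with substrate and ATP runs 120 min at RT, followed by ADP-Glo detection: ATP depletion (40 min) and ADP-derived luminescence (30 min).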

A further test concerns the target T3, SIK3 (Homo sapiens, UniProt Q9Y2K2).
T3 construct: purchased SignalChem S12-11G-100
Nature of the test: ADP-Glo kinase assay, SIK3. The procedure, abridged: as §1

pIC50: −log10 of the molar value. Some results are limits rather than exact numbers.

T3 sequence (Q9Y2K2 whole entry): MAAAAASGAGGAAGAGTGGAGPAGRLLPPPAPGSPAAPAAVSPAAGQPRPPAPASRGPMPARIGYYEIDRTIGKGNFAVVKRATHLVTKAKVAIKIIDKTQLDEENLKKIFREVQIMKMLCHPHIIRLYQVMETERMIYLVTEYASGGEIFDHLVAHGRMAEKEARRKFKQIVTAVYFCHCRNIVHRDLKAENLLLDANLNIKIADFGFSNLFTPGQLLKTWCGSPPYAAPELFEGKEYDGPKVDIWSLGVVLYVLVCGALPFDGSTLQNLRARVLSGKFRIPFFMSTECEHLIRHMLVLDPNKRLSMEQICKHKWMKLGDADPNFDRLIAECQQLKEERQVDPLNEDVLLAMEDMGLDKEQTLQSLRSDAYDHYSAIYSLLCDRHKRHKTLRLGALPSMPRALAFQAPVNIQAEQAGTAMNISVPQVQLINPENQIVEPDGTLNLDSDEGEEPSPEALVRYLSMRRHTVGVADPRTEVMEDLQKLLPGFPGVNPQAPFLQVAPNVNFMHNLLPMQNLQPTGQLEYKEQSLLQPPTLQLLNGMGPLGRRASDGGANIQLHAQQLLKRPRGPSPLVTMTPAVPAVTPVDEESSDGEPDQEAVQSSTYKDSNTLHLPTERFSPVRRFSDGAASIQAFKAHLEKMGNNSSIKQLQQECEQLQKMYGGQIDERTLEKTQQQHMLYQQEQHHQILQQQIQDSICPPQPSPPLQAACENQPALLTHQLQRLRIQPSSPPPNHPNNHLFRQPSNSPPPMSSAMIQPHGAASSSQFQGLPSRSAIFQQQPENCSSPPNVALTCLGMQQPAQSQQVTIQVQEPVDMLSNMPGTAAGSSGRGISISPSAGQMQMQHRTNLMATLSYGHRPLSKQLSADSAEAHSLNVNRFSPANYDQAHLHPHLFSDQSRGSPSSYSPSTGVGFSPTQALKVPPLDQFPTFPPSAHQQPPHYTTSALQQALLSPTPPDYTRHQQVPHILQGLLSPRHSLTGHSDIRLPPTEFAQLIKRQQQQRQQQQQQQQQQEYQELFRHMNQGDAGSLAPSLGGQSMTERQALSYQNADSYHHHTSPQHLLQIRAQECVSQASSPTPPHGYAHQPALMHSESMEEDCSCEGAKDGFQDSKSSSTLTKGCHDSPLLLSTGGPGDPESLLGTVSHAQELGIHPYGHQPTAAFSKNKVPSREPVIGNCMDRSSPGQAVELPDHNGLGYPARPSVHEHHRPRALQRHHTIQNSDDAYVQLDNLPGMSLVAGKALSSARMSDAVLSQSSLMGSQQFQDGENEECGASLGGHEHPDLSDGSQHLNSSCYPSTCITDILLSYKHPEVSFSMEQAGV
T2 sequence (Q9H0K1 whole entry): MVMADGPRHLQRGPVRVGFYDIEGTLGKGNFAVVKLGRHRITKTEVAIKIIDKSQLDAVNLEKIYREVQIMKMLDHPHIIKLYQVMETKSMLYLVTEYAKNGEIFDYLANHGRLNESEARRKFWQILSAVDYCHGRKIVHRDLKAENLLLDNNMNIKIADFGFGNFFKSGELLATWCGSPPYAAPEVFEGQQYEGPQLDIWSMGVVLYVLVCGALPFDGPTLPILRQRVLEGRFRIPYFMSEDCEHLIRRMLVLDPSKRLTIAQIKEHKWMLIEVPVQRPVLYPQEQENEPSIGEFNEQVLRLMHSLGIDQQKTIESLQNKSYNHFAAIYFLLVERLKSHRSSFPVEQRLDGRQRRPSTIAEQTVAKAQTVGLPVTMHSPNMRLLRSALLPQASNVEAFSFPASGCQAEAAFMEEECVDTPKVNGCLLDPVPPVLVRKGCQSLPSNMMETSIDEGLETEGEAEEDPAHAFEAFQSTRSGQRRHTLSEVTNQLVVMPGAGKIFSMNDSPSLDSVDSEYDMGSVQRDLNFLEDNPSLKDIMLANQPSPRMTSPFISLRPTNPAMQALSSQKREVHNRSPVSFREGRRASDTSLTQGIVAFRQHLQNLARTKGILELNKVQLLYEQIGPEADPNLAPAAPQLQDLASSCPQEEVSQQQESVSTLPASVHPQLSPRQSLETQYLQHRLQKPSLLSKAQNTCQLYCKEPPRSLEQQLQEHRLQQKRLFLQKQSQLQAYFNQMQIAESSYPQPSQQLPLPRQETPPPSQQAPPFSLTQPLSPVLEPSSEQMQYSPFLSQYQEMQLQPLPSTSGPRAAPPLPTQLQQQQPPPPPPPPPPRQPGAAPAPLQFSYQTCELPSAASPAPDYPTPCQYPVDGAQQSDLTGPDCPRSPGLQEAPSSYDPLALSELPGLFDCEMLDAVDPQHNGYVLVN
T1 sequence (P57059 whole entry): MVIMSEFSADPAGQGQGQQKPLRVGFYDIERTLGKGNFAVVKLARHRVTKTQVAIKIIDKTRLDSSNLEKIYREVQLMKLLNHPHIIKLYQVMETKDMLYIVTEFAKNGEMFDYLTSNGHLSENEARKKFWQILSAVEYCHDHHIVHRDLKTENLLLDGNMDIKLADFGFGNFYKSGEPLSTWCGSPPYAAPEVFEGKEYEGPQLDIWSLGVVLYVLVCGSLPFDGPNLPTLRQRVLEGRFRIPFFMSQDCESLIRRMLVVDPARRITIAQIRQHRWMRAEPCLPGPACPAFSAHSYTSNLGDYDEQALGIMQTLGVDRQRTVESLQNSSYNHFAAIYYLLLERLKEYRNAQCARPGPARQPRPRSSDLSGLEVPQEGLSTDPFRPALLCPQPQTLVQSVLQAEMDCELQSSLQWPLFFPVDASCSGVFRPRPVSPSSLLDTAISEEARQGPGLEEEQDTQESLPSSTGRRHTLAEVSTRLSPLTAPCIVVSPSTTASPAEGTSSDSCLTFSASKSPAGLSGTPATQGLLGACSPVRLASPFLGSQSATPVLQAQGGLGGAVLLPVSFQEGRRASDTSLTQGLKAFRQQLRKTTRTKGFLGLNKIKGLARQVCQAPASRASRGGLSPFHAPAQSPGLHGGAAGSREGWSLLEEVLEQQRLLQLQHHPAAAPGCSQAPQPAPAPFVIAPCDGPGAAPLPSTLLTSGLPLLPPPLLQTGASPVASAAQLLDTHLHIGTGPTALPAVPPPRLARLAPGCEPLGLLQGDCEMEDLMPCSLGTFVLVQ

For `COc1cc(-c2cnc3cc(OCCN4CCCC4)ccn23)cc(OC(F)F)c1C(=O)NC1CC1` [compound 20, N-cyclopropyl-2-(difluoromethoxy)-6-methoxy-4-[7-(2-pyrrolidin-1-ylethoxy)imidazo[1,2-a]pyridin-3-yl]benzamide], the pIC50 against SIK1 is 7.00 to 8.00; against SIK2, 8.00 to 11.00; on SIK3, 8.00 to 11.00.
In the case of `COc1cc(-c2cnc3cc(OCc4ccn(C)n4)ccn23)cc(OC(F)F)c1C(=O)NC1CC1` [compound 200, N-cyclopropyl-2-(difluoromethoxy)-6-methoxy-4-[7-[(1-methylpyrazol-3-yl)methoxy]imidazo[1,2-a]pyridin-3-yl]benzamide], the pIC50 against SIK1 is 7.00 to 8.00; at SIK2 it was 8.00 to 11.00; at SIK3, 8.00 to 11.00.
In the case of `COc1cc(-c2cnc3cc(OC[C@H]4COCCO4)ccn23)cnc1C(=O)NCC(F)(F)F` [compound 265, 5-[7-[[(2R)-1,4-dioxan-2-yl]methoxy]imidazo[1,2-a]pyridin-3-yl]-3-methoxy-N-(2,2,2-trifluoroethyl)pyridine-2-carboxamide], the negative-log IC50 (pIC50) is less than 6.30 at SIK1, 6.30 to 7.00 against SIK2 and 6.30 to 7.00 against SIK3.
`COc1cc(-c2cnc3cc(OC[C@@H]4CCN(C5COC5)C4)ccn23)cc(OC(F)F)c1C(=O)NC1CC1` [compound 336, N-cyclopropyl-2-(difluoromethoxy)-6-methoxy-4-[7-[[(3R)-1-(oxetan-3-yl)pyrrolidin-3-yl]methoxy]imidazo[1,2-a]pyridin-3-yl]benzamide]: the negative-log IC50 (pIC50) was 7.00 to 8.00 against SIK1, 8.00 to 11.00 at SIK2 and 8.00 to 11.00 at SIK3.
On to `COc1cc(-c2cnc3cc(OCC4CCCN4)ccn23)cc(OC(F)F)c1C(=O)NC1CC1` (stereo not drawn) [Cpd 154, N-cyclopropyl-2-(difluoromethoxy)-6-methoxy-4-[7-(pyrrolidin-2-ylmethoxy)imidazo[1,2-a]pyridin-3-yl]benzamide], for which the results for the pIC50 at SIK1, at SIK2 and against SIK3 were 7.00 to 8.00, 8.00 to 11.00 and 8.00 to 11.00, respectively.
`COc1cc(-c2cnc3cc(OCC(N)C4CCCO4)ccn23)cc(OC(F)F)c1C(=O)NC1CC1` (stereo not drawn) [compound 136, 4-[7-(2-amino-2-tetrahydrofuran-2-yl-ethoxy)imidazo[1,2-a]pyridin-3-yl]-N-cyclopropyl-2-(difluoromethoxy)-6-methoxy-benzamide]: the pIC50 against SIK1 is 7.00 to 8.00; on SIK2 it was 8.00 to 11.00; against SIK3 it was 8.00 to 11.00.
For the compound `COc1cc(-c2cnc3cc(OCCF)ccn23)cc(OC(F)F)c1C(=O)NC1CC1` [compound 36, N-cyclopropyl-2-(difluoromethoxy)-4-[7-(2-fluoroethoxy)imidazo[1,2-a]pyridin-3-yl]-6-methoxy-benzamide], the pIC50 against SIK1 was 7.00 to 8.00; against SIK2, 8.00 to 11.00; against SIK3 it was 8.00 to 11.00.
As for `COc1cc(-c2cnc3cc(OCCNC(C)=O)ccn23)cc(OC(F)F)c1C(=O)NC1CC1` [compound 27, 4-[7-(2-acetamidoethoxy)imidazo [1,2-a]pyridin-3-yl]-N-cyclopropyl-2-(difluoromethoxy)-6-methoxy-benzamide], the pIC50 on SIK1, against SIK2 and on SIK3 was 8.00 to 11.00 each time.
Turning to `COc1cc(-c2cnc3cc(OC4CCOC4)ccn23)cc(OC(F)F)c1C(=O)NC1CC1` (stereo not drawn) [compound 163, N-cyclopropyl-2-(difluoromethoxy)-6-methoxy-4-(7-tetrahydrofuran-3-yloxyimidazo[1,2-a]pyridin-3-yl)benzamide], the pIC50 was 7.00 to 8.00 at SIK1, 7.00 to 8.00 against SIK2 and 8.00 to 11.00 at SIK3.
Take `COc1cc(-c2cnc3cc(OCCN(C)CC#N)ccn23)cc(OC(F)F)c1C(=O)NC1CC1` [compound 215, 4-[7-[2-[cyanomethyl(methyl)amino]ethoxy]imidazo[1,2-a]pyridin-3-yl]-N-cyclopropyl-2-(difluoromethoxy)-6-methoxy-benzamide]: the negative logarithm of the IC50 (pIC50) against SIK1 was 7.00 to 8.00; at SIK2, 8.00 to 11.00; against SIK3, 8.00 to 11.00.
With `COc1cc(-c2cnc3cc(OCCCN4CC(C(=O)OC(C)(C)C)C4)ccn23)cc(OC(F)F)c1C(=O)NC1CC1` [compound 391, tert-butyl 1-[3-[3-[4-(cyclopropylcarbamoyl)-3-(difluoromethoxy)-5-methoxy-phenyl]imidazo[1,2-a]pyridin-7-yl]oxypropyl]azetidine-3-carboxylate], the pIC50 on SIK1 is 7.00 to 8.00; against SIK2 it was 8.00 to 11.00; against SIK3, 8.00 to 11.00.
`COc1cc(-c2cnc3cc(OCCCN4CCn5ncnc5C4)ccn23)cc(OC(F)F)c1C(=O)NC1CC1` [compound 313, N-cyclopropyl-2-(difluoromethoxy)-4-[7-[3-(6,8-dihydro-5H-[1,2,4]triazolo[1,5-a]pyrazin-7-yl)propoxy]imidazo[1,2-a]pyridin-3-yl]-6-methoxy-benzamide]: the pIC50 against SIK1 is 7.00 to 8.00; against SIK2, 8.00 to 11.00; at SIK3, 8.00 to 11.00.
`COc1cc(-c2cnc3cc(OCCN4CCOCC4C#N)ccn23)cc(OC(F)F)c1C(=O)NC1CC1` (stereo not drawn) [compound 178, 4-[7-[2-(3-cyanomorpholin-4-yl)ethoxy]imidazo[1,2-a]pyridin-3-yl]-N-cyclopropyl-2-(difluoromethoxy)-6-methoxy-benzamide]: the pIC50 was 7.00 to 8.00 on SIK1, 8.00 to 11.00 on SIK2 and 8.00 to 11.00 against SIK3.
For the compound `COc1cc(-c2cnc3cc(OCCNc4ccccn4)ccn23)cc(OC(F)F)c1C(=O)NC1CC1` [compound 367, N-cyclopropyl-2-(difluoromethoxy)-6-methoxy-4-[7-[2-(2-pyridylamino)ethoxy]imidazo[1,2-a]pyridin-3-yl]benzamide], the pIC50 against SIK1, against SIK2 and on SIK3 was 8.00 to 11.00 throughout.
Regarding `COc1cc(-c2cnc3cc(OCC(C)(C)OC)ccn23)cc(OC(F)F)c1C(=O)NC1CC1` [compound 3, N-cyclopropyl-2-(difluoromethoxy)-6-methoxy-4-[7-(2-methoxy-2-methyl-propoxy)imidazo[1,2-a]pyridin-3-yl]benzamide], the pIC50 against SIK1 was 7.00 to 8.00; on SIK2 it was 8.00 to 11.00; at SIK3 it was 8.00 to 11.00.
Take `COc1cc(-c2cnc3cc(OCc4nnc(C5CC5)o4)ccn23)cc(OC(F)F)c1C(=O)NC1CC1` [compound 205, N-cyclopropyl-4-[7-[(5-cyclopropyl-1,3,4-oxadiazol-2-yl)methoxy]imidazo[1,2-a]pyridin-3-yl]-2-(difluoromethoxy)-6-methoxy-benzamide]: the pIC50 against SIK1, on SIK2 and against SIK3 was 8.00 to 11.00 throughout.
For the compound `COc1cc(-c2cnc3cc(OC4(C#N)CCCC4)ccn23)cc(OC(F)F)c1C(=O)NC1CC1` [Cpd 255, 4-[7-(1-cyanocyclopentoxy)imidazo[1,2-a]pyridin-3-yl]-N-cyclopropyl-2-(difluoromethoxy)-6-methoxy-benzamide], the pIC50 against SIK1 was less than 6.30; against SIK2, 6.30 to 7.00; against SIK3, 7.00 to 8.00.
For `COc1cc(-c2cnc3cc(OCC4CCCNC4)ccn23)cc(OC(F)F)c1C(=O)NC1CC1` (stereo not drawn) [compound 143, N-cyclopropyl-2-(difluoromethoxy)-6-methoxy-4-[7-(3-piperidylmethoxy)imidazo[1,2-a]pyridin-3-yl]benzamide] the same measures were 8.00 to 11.00, 8.00 to 11.00 and 8.00 to 11.00.
The like results for `COCCOc1ccn2c(-c3cc(OC)c(C(=O)NC4CC4)c(OC(F)F)c3)cnc2c1` [compound 70, N-cyclopropyl-2-(difluoromethoxy)-6-methoxy-4-[7-(2-methoxyethoxy)imidazo [1,2-a]pyridin-3-yl]benzamide] were, in that order, 7.00 to 8.00, 8.00 to 11.00 and 8.00 to 11.00.
As to `COc1cc(-c2cnc3cc(OCCN4CCC4)ccn23)cc(OC(F)F)c1C(=O)NC1CC1` [compound 112, 4-[7-[2-(azetidin-1-yl)ethoxy]imidazo[1,2-a]pyridin-3-yl]-N-cyclopropyl-2-(difluoromethoxy)-6-methoxy-benzamide], the pIC50 against SIK1 is 7.00 to 8.00; on SIK2, 8.00 to 11.00; at SIK3 it was 8.00 to 11.00.
`COc1cc(-c2cnc3cc(Oc4ccccn4)ccn23)cc(OC(F)F)c1C(=O)NC1CC1` [compound 145, N-cyclopropyl-2-(difluoromethoxy)-6-methoxy-4-[7-(2-pyridyloxy)imidazo[1,2-a]pyridin-3-yl]benzamide]: the figures for the negative-log IC50 (pIC50) on SIK1, against SIK2 and on SIK3 were 6.30 to 7.00, 7.00 to 8.00 and 7.00 to 8.00, respectively.
`COc1cc(-c2cnc3cc(OCC4CCCCC4)ccn23)cc(OC(F)F)c1C(=O)NC1CC1` [compound 69, 4-[7-(cyclohexylmethoxy)imidazo[1,2-a]pyridin-3-yl]-N-cyclopropyl-2-(difluoromethoxy)-6-methoxy-benzamide]: the values for the pIC50 at SIK1, at SIK2 and at SIK3 were 7.00 to 8.00, 8.00 to 11.00 and 8.00 to 11.00, respectively.
In the case of `COc1cc(-c2cnc3cc(OCCCN4CC5(CC(O)C5)C4)ccn23)cc(OC(F)F)c1C(=O)NC1CC1` [compound 297, N-cyclopropyl-2-(difluoromethoxy)-4-[7-[3-(6-hydroxy-2-azaspiro[3.3]heptan-2-yl)propoxy]imidazo[1,2-a]pyridin-3-yl]-6-methoxy-benzamide], the negative-log IC50 (pIC50) is 7.00 to 8.00 against SIK1, 8.00 to 11.00 against SIK2 and 8.00 to 11.00 against SIK3.
For the compound `COc1cc(-c2cnc3cc(OCc4ccccc4)ccn23)cc(OC(F)F)c1C(=O)NC1CC1` [compound 68, 4-(7-benzyloxyimidazo[1,2-a]pyridin-3-yl)-N-cyclopropyl-2-(difluoromethoxy)-6-methoxy-benzamide], the pIC50 on SIK1, on SIK2 and on SIK3 was 8.00 to 11.00 in each case.

A word on the pIC50: it is −log10 of the IC50, conventionally taken in molar units. Higher therefore signals a small IC50.
